Results published in patent US20110098288A1, “SULFONAMIDES AS ZAP-70 INHIBITORS” (priority 2008, published 2011).
Counter-ions that a name gives are not always drawn.

molecular target: T1, ZAP-70 (Homo sapiens, UniProt P43403); assay: ZAP-70 kinobeads assay; type: binding; conditions: competition with immobilized aminopyrido-pyrimidine ligand 24 in cell lysate; ZAP-70 detected by dot blot
T1 construct: endogenous in cells; host or cells: cell lysate
T1 sequence (P43403 1-619): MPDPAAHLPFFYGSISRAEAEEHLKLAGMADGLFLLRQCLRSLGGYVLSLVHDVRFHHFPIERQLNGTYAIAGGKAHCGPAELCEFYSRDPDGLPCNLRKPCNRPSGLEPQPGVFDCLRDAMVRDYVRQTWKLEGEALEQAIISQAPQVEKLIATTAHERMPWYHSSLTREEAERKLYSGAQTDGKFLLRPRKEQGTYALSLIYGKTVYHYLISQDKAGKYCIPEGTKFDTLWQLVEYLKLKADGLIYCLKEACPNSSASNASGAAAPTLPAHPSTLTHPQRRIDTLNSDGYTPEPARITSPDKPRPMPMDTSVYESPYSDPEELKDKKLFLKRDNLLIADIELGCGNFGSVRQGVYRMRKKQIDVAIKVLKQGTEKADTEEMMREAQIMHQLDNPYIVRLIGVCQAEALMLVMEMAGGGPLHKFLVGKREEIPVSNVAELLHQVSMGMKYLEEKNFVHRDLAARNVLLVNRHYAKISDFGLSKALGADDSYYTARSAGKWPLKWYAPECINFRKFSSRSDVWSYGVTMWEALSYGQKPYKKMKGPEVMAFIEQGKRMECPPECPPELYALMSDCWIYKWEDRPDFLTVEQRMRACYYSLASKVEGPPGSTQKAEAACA
Procedure: The compounds of the present invention as described in the previous examples can be tested in the ZAP-70 kinobeads assay as described (EP-A 1862802 and WO-A 2007/137867). Briefly, test compounds (at various concentrations) and the affinity matrix with the immobilized aminopyrido-pyrimidine ligand 24 are added to cell lysate aliquots and allowed to bind to the proteins in the lysate sample. After the incubation time the beads with captured proteins are separated from the lysate. Bound proteins are then eluted and the presence ZAP-70 is detected and quantified using a specific antibody in a dot blot procedure and the Odyssey infrared detection system. Conventionally, ZAP-70 kinase activity can be measured using purified or recombinant enzyme in a solution-based assay with protein or peptide substrates (Isakov et al., 1996, J. Biol. Chem. 271(26), 15753-15761; Moffat et al., 1999, Bioorg. Med. Chem. Letters 9, 3351-3356).

Row | IC50 [nM] | Structure (SMILES)
1 | 1000 to 10000 | COc1cc(Nc2ncc(F)c(Nc3cc(C)cc(C)c3NS(C)(=O)=O)n2)cc(OC)c1OC [Example 186, N-(2-(5-fluoro-2-(3,4,5-trimethoxyphenylamino)pyrimidin-4-ylamino)-4,6-dimethylphenyl)methanesulfonamide]
2 | 1000 to 10000 | COc1ccc(Nc2ncc(F)c(Nc3ccccc3NS(C)(=O)=O)n2)cc1Cl [Example 19, N-(2-(2-(3-chloro-4-methoxyphenylamino)-5-fluoropyrimidin-4-ylamino)phenyl)methanesulfonamide]
3 | 1000 to 10000 | CS(=O)(=O)Nc1ccccc1Nc1nc(Nc2cccc(C#N)c2)ncc1F [Example 200, N-(2-(2-(3-cyanophenylamino)-5-fluoropyrimidin-4-ylamino)phenyl)methanesulfonamide]
4 | 100 to 1000 | CS(=O)(=O)Nc1ccccc1Nc1nc(Nc2ccc(-n3cncn3)cc2)ncc1Cl [Example 212, N-(2-(2-(4-(1H-1,2,4-triazol-1-yl)phenylamino)-5-chloropyrimidin-4-ylamino)phenyl)methanesulfonamide]
5 | 1000 to 10000 | COc1cc(Nc2ncc(F)c(Nc3cc(F)c(F)cc3NS(C)(=O)=O)n2)cc(OC)c1OC [Example 174, N-(4,5-difluoro-2-(5-fluoro-2-(3,4,5-trimethoxyphenylamino)pyrimidin-4-ylamino)phenyl)methanesulfonamide]
6 | 1000 to 10000 | CS(=O)(=O)Nc1ccccc1Nc1nc(Nc2cccc(OC(F)F)c2)ncc1F [Example 26, N-(2-(2-(3-(difluoromethoxy)phenylamino)-5-fluoropyrimidin-4-ylamino)phenyl)methanesulfonamide]
7 | 100 to 1000 | CCN(c1ccccc1Nc1nc(Nc2ccc(OC)cc2)ncc1F)S(C)(=O)=O [Example 156, N-ethyl-N-(2-(5-fluoro-2-(4-methoxyphenylamino)pyrimidin-4-ylamino)phenyl)methanesulfonamide]
8 | 1000 to 10000 | CS(=O)(=O)Nc1ccccc1Nc1nc(Nc2cccc(C(=O)NC3CC3)c2)ncc1F [Example 83, N-cyclopropyl-3-(5-fluoro-4-(2-(methylsulfonamido)phenylamino)pyrimidin-2-ylamino)benzamide]
9 | 100 to 1000 | CS(=O)(=O)Nc1ccccc1Nc1nc(Nc2ccc(-n3cncn3)cc2)ncc1F [Example 198, N-(2-(2-(4-(1H-1,2,4-triazol-1-yl)phenylamino)-5-fluoropyrimidin-4-ylamino)phenyl)methanesulfonamide]
10 | 1000 to 10000 | Cc1n[nH]c(-c2ccc(Nc3ncc(F)c(Nc4ccccc4NS(C)(=O)=O)n3)cc2)n1 [Example 191, N-(2-(5-fluoro-2-(4-(3-methyl-1H-1,2,4-triazol-5-yl)phenylamino)pyrimidin-4-ylamino)phenyl)methanesulfonamide]
11 | 1000 to 10000 | Cn1ccc(-c2cccc(Nc3ncc(F)c(Nc4ccccc4NS(C)(=O)=O)n3)c2)n1 [Example 201, N-(2-(5-fluoro-2-(3-(1-methyl-1H-pyrazol-3-yl)phenylamino)pyrimidin-4-ylamino)phenyl)methanesulfonamide]
12 | 100 to 1000 | COc1cc(Nc2ncc(F)c(Nc3ccccc3NS(C)(=O)=O)n2)cc(OCCN2CCCC2)c1OC [Example 74, N-(2-(2-(3,4-dimethoxy-5-(2-(pyrrolidin-1-yl)ethoxy)phenylamino)-5-fluoropyrimidin-4-ylamino)phenyl)methanesulfonamide]
13 | 100 to 1000 | CCN(c1ccccc1Nc1nc(Nc2ccc(OCCN3CCOCC3)cc2)ncc1F)S(C)(=O)=O [Example 159, N-ethyl-N-(2-(5-fluoro-2-(4-(2-morpholinoethoxy)phenylamino)pyrimidin-4-ylamino)phenyl)methanesulfonamide]
14 | 1000 to 10000 | Cc1ccc(C)n1-c1cccc(Nc2ncc(F)c(Nc3ccccc3NS(C)(=O)=O)n2)c1 [Example 202, N-(2-(2-(3-(2,5-dimethyl-1H-pyrrol-1-yl)phenylamino)-5-fluoropyrimidin-4-ylamino)phenyl)methanesulfonamide]
15 | 1000 to 10000 | CN1C(=O)COc2ccc(Nc3ncc(F)c(Nc4ccccc4NS(C)(=O)=O)n3)cc21 [Example 20, N-(2-(5-fluoro-2-(4-methyl-3-oxo-3,4-dihydro-2H-benzo[b][1,4]oxazin-6-ylamino)pyrimidin-4-ylamino)phenyl)methanesulfonamide]
16 | 1000 to 10000 | CS(=O)(=O)Nc1ccccc1Nc1nc(Nc2cccc(-n3cnnn3)c2)ncc1F [Example 188, N-(2-(2-(3-(1H-tetrazol-1-yl)phenylamino)-5-fluoropyrimidin-4-ylamino)phenyl)methanesulfonamide]

Row | IC50 [nM] | Structure (SMILES)
17 | 1000 to 10000 | Cc1nnnn1-c1cccc(Nc2ncc(F)c(Nc3ccccc3NS(C)(=O)=O)n2)c1 [Example 194, N-(2-(5-fluoro-2-(3-(5-methyl-1H-tetrazol-1-yl)phenylamino)pyrimidin-4-ylamino)phenyl)methanesulfonamide]
18 | 1000 to 10000 | CS(=O)(=O)Nc1ccccc1Nc1nc(Nc2cccc(-n3cccn3)c2)ncc1F [Example 17, N-(2-(2-(3-(1H-pyrazol-1-yl)phenylamino)-5-fluoropyrimidin-4-ylamino)phenyl)methanesulfonamide]
19 | 1000 to 10000 | CS(=O)(=O)Nc1ccccc1Nc1nc(Nc2cccc(F)c2)ncc1F [Example 6, N-(2-(5-fluoro-2-(3-fluorophenylamino)pyrimidin-4-ylamino)phenyl)methanesulfonamide]
20 | 100 to 1000 | CN(C)C(=O)c1cccc(Nc2ncc(F)c(Nc3ccccc3NS(C)(=O)=O)n2)c1 [Example 84, 3-(5-fluoro-4-(2-(methylsulfonamido)phenylamino)pyrimidin-2-ylamino)-N,N-dimethylbenzamide]
21 | 100 to 1000 | CC(C)OC(=O)COc1ccc(Nc2ncc(Cl)c(Nc3ccccc3NS(C)(=O)=O)n2)cc1 [Example 143, Isopropyl 2-(4-(5-chloro-4-(2-(methylsulfonamido)phenylamino)pyrimidin-2-ylamino)-phenoxy)acetate hydrochloride]
22 | 1000 to 10000 | Cc1nc(-c2ccc(Nc3ncc(F)c(Nc4ccccc4NS(C)(=O)=O)n3)cc2)no1 [Example 197, N-(2-(5-fluoro-2-(4-(5-methyl-1,2,4-oxadiazol-3-yl)phenylamino)pyrimidin-4-ylamino)phenyl)methanesulfonamide]
23 | 1000 to 10000 | Cc1cc(C)n(-c2cccc(Nc3ncc(Cl)c(Nc4ccccc4NS(C)(=O)=O)n3)c2)n1 [Example 209, N-(2-(5-chloro-2-(3-(3,5-dimethyl-M-pyrazol-1-yl)phenylamino)pyrimidin-4-ylamino)phenyl)methanesulfonamide]
24 | 1000 to 10000 | CS(=O)(=O)Nc1ccccc1Nc1nc(Nc2cccc(N3CCCC3)c2)ncc1F [Example 85, N-(2-(5-fluoro-2-(3-(pyrrolidin-1-yl)phenylamino)pyrimidin-4-ylamino)phenyl)methanesulfonamide]
25 | 100 to 1000 | CS(=O)(=O)Nc1ccccc1Nc1nc(Nc2ccc(-n3cnnn3)cc2)ncc1Cl [Example 214, N-(2-(2-(4-(1H-tetrazol-1-yl)phenylamino)-5-chloropyrimidin-4-ylamino)phenyl)methanesulfonamide]
26 | 100 to 1000 | COc1cc(Nc2ncc(F)c(Nc3ccc(OCCCN4CCCCC4)cc3NS(C)(=O)=O)n2)cc(OC)c1OC [Example 185, N-(2-(5-fluoro-2-(3,4,5-trimethoxyphenylamino)pyrimidin-4-ylamino)-5-(3-(piperidin-1-yl)propoxy)phenyl)methanesulfonamide]
27 | 1000 to 10000 | CNC(=O)c1cccc(Nc2ncc(F)c(Nc3ccccc3NS(C)(=O)=O)n2)c1 [Example 80, 3-(5-fluoro-4-(2-(methylsulfonamido)phenylamino)pyrimidin-2-ylamino)-N-methylbenzamide]
28 | 100 to 1000 | Cc1n[nH]c(-c2cccc(Nc3ncc(Cl)c(Nc4ccccc4NS(C)(=O)=O)n3)c2)n1 [Example 213, N-(2-(5-chloro-2-(3-(3-methyl-1H-1,2,4-triazol-5-yl)phenylamino)pyrimidin-4-ylamino)phenyl)methanesulfonamide]
29 | 100 to 1000 | COc1ccc(Nc2ncc(F)c(Nc3ccccc3N(C)S(C)(=O)=O)n2)cc1OC [Example 109, N-(2-(2-(3,4-dimethoxyphenylamino)-5-fluoropyrimidin-4-ylamino)phenyl)-N-methylmethanesulfonamide]
30 | 1000 to 10000 | CCN(c1ccccc1Nc1nc(Nc2cc(C)cc(C)c2)ncc1F)S(C)(=O)=O [Example 155, N-(2-(2-(3,5-dimethylphenylamino)-5-fluoropyrimidin-4-ylamino)phenyl)-N-ethylmethanesulfonamide]
31 | 1000 to 10000 | CCOc1cccc(Nc2ncc(F)c(Nc3ccccc3NS(C)(=O)=O)n2)c1 [Example 13, N-(2-(2-(3-ethoxyphenylamino)-5-fluoropyrimidin-4-ylamino)phenyl)methanesulfonamide]
